Paper PMC10135569, “Does Enhanced Structural Maturity of hiPSC-Cardiomyocytes Better for the Detection of Drug-Induced Cardiotoxicity?” (Biomolecules, 2023)

Assays:
[1] = test system: hiPSC-CMs (iCell2 Cardiomyocytes) 2D monolayers; experiment: Membrane potential (action potential) recordings with FluoVolt voltage-sensitive dye on the CellOPTIQ platform; format: cell-based, human; settings: for activity at 0.01 µM / activity at 0.03 µM / activity at 0.1 µM / activity at 0.3 µM: Homo sapiens, Cardiomyocyte, 0.5 h, 30 min, delta over DMSO 0.1%
Procedure: (§1) Cardiomyocytes (FUJIFILM Cellular Dynamics, Madison, WI, USA) were kept at −190 °C and prepared for culture as per the manufacturer’s instructions.
(§2) Standard fibronectin vs. Matrix Plus well coating: The cells were cultured using two different coatings in a humidified incubator at 37 °C with 5% CO2. First, 96-well glass-bottomed plates (MatTek, Ashland, MA) were coated with fibronectin ([…] in PBS supplemented with Ca^2+ and Mg^2+; Sigma, St. Louis, MO, USA) (defining FM). Second, CELLvo^TM Matrix Plus (StemBioSys, San Antonio, TX, USA), which were pre-coated on 96 well glass bottom plates and kept at 4 °C. On the day of plating, CELLvo^TM Matrix Plus plates were transferred to room temperature, rehydrated with phosphate buffer saline (PBS), incubated for 1 h at 37 °C, and washed 2× with PBS. Cells were introduced at a density of 50,000 cells/well to allow the formation of a confluent monolayer in each well (defined as MM). The maintenance protocols followed the manufacturer’s instructions and used the iCell^2 Cardiomyocytes Maintenance media for media changes every 2 days. Experiments were performed between days 5 and 6, as recommended by the manufacturers. Before beginning an experiment, cells were washed in serum-free media (SF media) (Fluorobrite DMEM, Gibco, Thermo Fisher Scientific, Horsham, UK).
(§3) The drug powders were dissolved in DMSO, and four stock concentrations at 1000× the final target concentration were prepared in DMSO. For the experiment, an intermediate concentration 2× the target solution was prepared in SF media. The addition of drugs to the cells was accomplished by replacing 50% of the well volume with the intermediate 2× solution. The same procedure was done for vehicle control using DMSO. The experimental number n = 8/concentration/testing compound in the FM or MM condition, and n = 36 for each positive or negative control in the FM or MM condition.
Cultures of hiPSC-CMs (5–6 days post-plating) were treated with FluoVolt dye (1:1000, Invitrogen, Cat# F10488) in SF media and incubated for 20 min at 37 °C with 5% CO2 and 80% humidity. Multi-well plates were placed in the environmentally controlled stage incubator (37 °C, 5% CO2, water-saturated air atmosphere) (Okolab Inc. Burlingame, CA) of the CellOPTIQ® platform (Clyde Biosciences Ltd., Glasgow, Scotland). The FluoVolt signal was recorded from a 0.2 mm × 0.2 mm area using a 40× (numerical aperture: NA 0.6) Excitation wavelength was 470 ± 10 nm using a light-emitting diode (LED), and emitted light was collected by two photomultipliers (PMTs) at 510–560 nm (channel 1) and 590–650 nm (channel 2), respectively. LED, PMT, and associated power supplies and amplifiers were supplied by Cairn Research Ltd. (Kent, UK) and digitized at 10 kHz and stored on a computer hard drive. In the case of FluoVolt-based action potential recordings, the short wavelength (channel 1, […]) was analyzed for action potential features.
(§4) The dye FluoVolt is loaded into the surface membrane (outer leaflet), and the dye remains within the membrane for many dots, allowing intermittent voltage measurements over the experimental period. In this study, measurements were restricted to within 30 mins of application of the drug. The measurements were made on the same area before/after drug/DMSO addition. […] Baseline spontaneous electrical activity and the associated contractility signal were recorded by capturing 10 s segments of fluorescent signal and video for 2D plates and 15 s for organoids from each well prior to compound addition. Drugs were tested at four concentrations in n = 8 independent replicates (i.e., 8 wells from a single plating) at each concentration. A vehicle control was included for each drug. A 10 s or 15 s recording was then taken 30 min after exposure to the drug or vehicle with only one concentration applied/well.

[2] = test system: hiPSC-CMs (iCell2 Cardiomyocytes) 2D monolayers; experiment: Contractility measurements using video imaging (ContractilityTool / MUSCLEMOTION); format: cell-based, human; settings: Homo sapiens, Cardiomyocyte, 0.5 h, 30 min, delta over DMSO 0.1%
Procedure: as §1, §2, §3
as §4, with “applied/well. Offline analysis was performed using proprietary software (CellOPTIQ®).” for “applied/well.”
Short periods (10 s or 15 s) of video were analyzed using the ContractilityTool application (developed by F.L. Burton), which is an implementation of the MUSCLEMOTION algorithm.

[3] = FM monolayer, read-out: APD30 (%DD)
[4] = FM monolayer, read-out: APD90 (%DD)
[5] = FM monolayer, read-out: CL (%DD)
[6] = FM monolayer, read-out: Trise (%DD)
[7] = MM monolayer, read-out: APD30 (%DD)
[8] = MM monolayer, read-out: APD90 (%DD)
[9] = MM monolayer, read-out: CL (%DD)
[10] = MM monolayer, read-out: Trise (%DD)
[11] = both FM and MM monolayers, concentration not given
[12] = FM monolayer, read-out: CtAmp (%DD)
[13] = FM monolayer, read-out: CtD50 (%DD)
[14] = MM monolayer, read-out: CtAmp (%DD)
[15] = MM monolayer, read-out: CtD50 (%DD)

COc1ccc([C@@H]2Sc3ccccc3N(CCN(C)C)C(=O)[C@@H]2OC(C)=O)cc1 [Diltiazem]
activity at 0.01 µM [1, 3]: 98 ± 1.9% | activity at 0.01 µM [1, 4]: 96 ± 1.1% | activity at 0.01 µM [1, 5]: 102 ± 1.1% | activity at 0.01 µM [1, 6]: 105 ± 17% | activity at 0.03 µM [1, 3]: 92 ± 1.5% | activity at 0.03 µM [1, 4]: 92 ± 0.9% | activity at 0.03 µM [1, 5]: 103 ± 1.3% | activity at 0.03 µM [1, 6]: 103 ± 12.5% | activity at 0.1 µM [1, 3]: 76 ± 2.7% | activity at 0.1 µM [1, 4]: 78 ± 2.2% | activity at 0.1 µM [1, 5]: 96 ± 0.8% | activity at 0.1 µM [1, 6]: 91 ± 12% | activity at 0.3 µM [1, 3]: 60 ± 1.3% | activity at 0.3 µM [1, 4]: 62 ± 1.1% | activity at 0.3 µM [1, 5]: 85 ± 0.5% | activity at 0.3 µM [1, 6]: 116 ± 13.8% | activity at 0.01 µM [1, 7]: 100 ± 1.9% | activity at 0.01 µM [1, 8]: 96 ± 0.6% | activity at 0.01 µM [1, 9]: 98 ± 0.9% | activity at 0.01 µM [1, 10]: 86 ± 16.4% | activity at 0.03 µM [1, 7]: 91 ± 1.2% | activity at 0.03 µM [1, 8]: 90 ± 0.7% | activity at 0.03 µM [1, 9]: 96 ± 0.9% | activity at 0.03 µM [1, 10]: 79 ± 4% | activity at 0.1 µM [1, 7]: 80 ± 1.6% | activity at 0.1 µM [1, 8]: 77 ± 1.2% | activity at 0.1 µM [1, 9]: 83 ± 0.6% | activity at 0.1 µM [1, 10]: 79 ± 14.3% | activity at 0.3 µM [1, 7]: 65 ± 0.8% | activity at 0.3 µM [1, 8]: 62 ± 0.9% | activity at 0.3 µM [1, 9]: 71 ± 0.5% | activity at 0.3 µM [1, 10]: 74 ± 8.9% | effect on APD30 (in words) [1, 11]: shortening | effect on APD90 (in words) [1, 11]: shortening | effect on beating rate / spontaneous rate (in words) ([1]; both FM and MM, concentration not given): increase | activity at 0.01 µM [2, 12]: 142 ± 27.5% | activity at 0.01 µM [2, 13]: 103 ± 2.8% | activity at 0.03 µM [2, 12]: 127 ± 27.9% | activity at 0.03 µM [2, 13]: 95 ± 1.4% | activity at 0.1 µM [2, 12]: 108 ± 33.5% | activity at 0.1 µM [2, 13]: 82 ± 1.6% | activity at 0.3 µM [2, 12]: 59 ± 15.4% | activity at 0.3 µM [2, 13]: 68 ± 1.4% | activity at 0.01 µM [2, 14]: 101 ± 11.1% | activity at 0.01 µM [2, 15]: 105 ± 2.7% | activity at 0.03 µM [2, 14]: 94 ± 7.8% | activity at 0.03 µM [2, 15]: 99 ± 2.6% | activity at 0.1 µM [2, 14]: 93 ± 6.2% | activity at 0.1 µM [2, 15]: 81 ± 1.2% | activity at 0.3 µM [2, 14]: 73 ± 5.8% | activity at 0.3 µM [2, 15]: 61 ± 1.9%
